Test [1] concerns the target T1, Ribosyldihydronicotinamide dehydrogenase [quinone] (Homo sapiens, UniProt P16083).
T1 sequence (P16083 whole entry): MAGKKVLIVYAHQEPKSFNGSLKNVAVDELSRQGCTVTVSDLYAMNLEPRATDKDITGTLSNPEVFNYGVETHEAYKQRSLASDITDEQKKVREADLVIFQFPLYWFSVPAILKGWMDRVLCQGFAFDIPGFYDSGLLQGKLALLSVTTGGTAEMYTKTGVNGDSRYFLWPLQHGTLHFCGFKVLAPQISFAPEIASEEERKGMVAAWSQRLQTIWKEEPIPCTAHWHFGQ
The test can be described thus: Inhibition of Steady-State Catalysis Assay. Here is the method:
To determine the IC50 value of each inhibitor, reactions were initiated by addition of 154 pM NQO2 to a reaction buffer containing 150 μM SCDP and 5 μM menadione with TBB (0.625−640 μM), TBBz (2.5−640 nM), or DMAT (2.5−640 nM).

Test [2] has as its target T1, Ribosyldihydronicotinamide dehydrogenase [quinone]. The test can be described thus: Fluorescence Titration Assay. On the procedure: To assess direct binding of inhibitors to oxidized NQO2 (NQO2ox), fluorescence quenching of FAD was monitored with an excitation wavelength of 350 nm and an emission wavelength of 430 nm. NQO2 (775 or 38.75 nM) was titrated with the indicated concentrations of TBB, TBBz, and DMAT.

As for `Brc1c(Br)c(Br)c2[nH]cnc2c1Br` [4,5,6,7-tetrabromo-1H-benzimidazole], inhibition in test [1] was half-maximal at 79.4 nM (IC50). Moreover, the affinity in test [2], expressed as Kd, was 18.1 nM.
The matching figures for `CN(C)c1nc2c(Br)c(Br)c(Br)c(Br)c2[nH]1` [2-(dimethylamino)-4,5,6,7-tetrabromo-1H-benzimidazole]: 484 nM and 36.4 nM.
The matching figures for `Brc1c(Br)c(Br)c2[nH]nnc2c1Br`: 12800 nM and 7110 nM.

The values are drawn from BindingDB's records for doi:10.1021/bi500959t (University of Western Ontario, 2015).
